Measured values reported in ChEMBL document CHEMBL1153074, “Novel, achiral aminoheterocycles as selective monoamine reuptake inhibitors” (Bioorg Med Chem Lett, 2009).

Test system: not listed separately
Assay: in vitro
Conditions: human, Caco-2
Description: Efflux ratio of apparent permeability from basolateral to apical side to apical to basolateral side in human Caco-2 cells at 10 uM after 21 days
With NS(=O)(=O)c1cccc(CN(c2ccc3[nH]ccc3c2)C2CCNCC2)c1 the efflux ratio at 10 µM was 4.2.
N#Cc1cccc(CN(c2ccc3[nH]ccc3c2)C2CCNCC2)c1 gave an efflux ratio at 10 µM of 3.6.

Test system: not listed separately
Assay: in vitro
Conditions: human, Caco-2
Remark: another data set of the same source
Description: Apparent permeability from basolateral to apical side of human Caco-2 cells at 10 uM after 21 days
For NS(=O)(=O)c1cccc(CN(c2ccc3[nH]ccc3c2)C2CCNCC2)c1, the Papp B→A at 10 µM was 3 ×10⁻⁶ cm/s.
In the case of c1ccc(CN(c2ccc3[nH]ccc3c2)C2CCNCC2)cc1, the Papp B→A at 10 µM is reported as 6 ×10⁻⁶ cm/s.
Work on N#Cc1cccc(CN(c2ccc3[nH]ccc3c2)C2CCNCC2)c1 yielded a Papp B→A at 10 µM of 14 ×10⁻⁶ cm/s.

Molecular target: CYP3A4 (Homo sapiens, UniProt P08684)
Sequence (P08684 whole entry): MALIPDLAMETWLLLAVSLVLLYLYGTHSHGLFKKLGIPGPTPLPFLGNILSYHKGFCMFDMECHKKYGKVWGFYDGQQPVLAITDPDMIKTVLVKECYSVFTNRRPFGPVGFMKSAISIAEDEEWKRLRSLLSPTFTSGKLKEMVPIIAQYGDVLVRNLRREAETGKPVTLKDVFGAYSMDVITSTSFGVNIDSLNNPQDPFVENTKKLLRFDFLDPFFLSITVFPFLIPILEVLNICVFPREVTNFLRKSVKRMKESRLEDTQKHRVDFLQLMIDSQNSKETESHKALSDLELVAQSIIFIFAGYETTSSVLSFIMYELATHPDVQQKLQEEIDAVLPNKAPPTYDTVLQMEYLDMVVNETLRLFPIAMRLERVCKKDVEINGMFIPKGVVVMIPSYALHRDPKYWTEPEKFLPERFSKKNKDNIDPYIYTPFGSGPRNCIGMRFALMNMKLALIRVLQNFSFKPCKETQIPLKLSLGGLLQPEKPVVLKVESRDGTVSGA
Assay: in vitro
Conditions: not given
With CNCCN(c1ccccc1)c1ccc2[nH]ccc2c1 the IC20 was 2000 nM.
Compound c1ccc(CN(c2ccc3[nH]ccc3c2)C2CCNC2)cc1 (stereo unspecified) has an IC20 of 2000 nM.
Work on NS(=O)(=O)c1cccc(CN(c2ccc3[nH]ccc3c2)C2CCNCC2)c1 yielded an IC20 of 2000 nM.
For Cn1ccc2cc(N(Cc3ccccc3)C3CCNCC3)ccc21, the IC20 was 5000 nM.
Work on CNCCC(c1ccccc1)c1ccc2[nH]ccc2c1 (stereo unspecified) yielded an IC20 of 3000 nM.
c1ccc(CN(c2ccc3sccc3c2)C2CCNCC2)cc1 gave an IC20 of 19000 nM.
In the case of c1ccc(N(c2ccc3[nH]ccc3c2)C2CCNCC2)cc1, the IC20 is reported as 26000 nM.
With c1ccc(CN(c2ccc3[nH]ccc3c2)C2CCNCC2)cc1 the IC20 was 100 nM.
c1ccc(CN(c2ccc3[nH]ccc3c2)C2CCCNC2)cc1 (stereo unspecified) showed an IC20 of 300 nM.
Compound c1ccc(CN(c2ccc3[nH]ncc3c2)C2CCNCC2)cc1 has an IC20 of 500 nM.
Work on N#Cc1cccc(CN(c2ccc3[nH]ccc3c2)C2CCNCC2)c1 yielded an IC20 of 2000 nM.
With c1cc2cc(N(CC3CCOCC3)C3CCNCC3)ccc2[nH]1 the IC20 was > 50000 nM.

Test system: not listed separately
Assay: in vitro
Conditions: human, liver microsomes
Description: Intrinsic clearance in human liver microsomes
Compound c1ccc(CN(c2ccc3[nH]ccc3c2)C2CCNC2)cc1 (stereo unspecified) has a microsomal CLint of 36 µL/min/mg.
Work on NS(=O)(=O)c1cccc(CN(c2ccc3[nH]ccc3c2)C2CCNCC2)c1 yielded a microsomal CLint of 2 µL/min/mg.
For Cn1ccc2cc(N(Cc3ccccc3)C3CCNCC3)ccc21, the microsomal CLint was 26 µL/min/mg.
For CNCCC(c1ccccc1)c1ccc2[nH]ccc2c1 (stereo unspecified), the microsomal CLint was 11 µL/min/mg.
c1ccc(CN(c2ccc3sccc3c2)C2CCNCC2)cc1 showed a microsomal CLint of 18 µL/min/mg.
With c1ccc(CN(c2ccc3[nH]ccc3c2)C2CCNCC2)cc1 the microsomal CLint was 17 µL/min/mg.
For c1ccc(CN(c2ccc3[nH]ccc3c2)C2CCCNC2)cc1 (stereo unspecified), the microsomal CLint was 23 µL/min/mg.
With N#Cc1cccc(CN(c2ccc3[nH]ccc3c2)C2CCNCC2)c1 the microsomal CLint was 13 µL/min/mg.

Molecular target: Cytochrome P450 3A4 (Homo sapiens, UniProt P08684)
Sequence (P08684 whole entry): as above
Assay: Inhibition of CYP3A4 in human liver microsomes after 25 mins
Assay type: ADME, Microsome
Conditions: TDE = time-dependent effect
In the case of c1ccc(CN(c2ccc3[nH]ccc3c2)C2CCNCC2)cc1, the “inhibition (INH)” value is reported as “tde”.

Molecular target: Sodium-dependent dopamine transporter (Homo sapiens, UniProt Q01959)
Sequence (Q01959 whole entry): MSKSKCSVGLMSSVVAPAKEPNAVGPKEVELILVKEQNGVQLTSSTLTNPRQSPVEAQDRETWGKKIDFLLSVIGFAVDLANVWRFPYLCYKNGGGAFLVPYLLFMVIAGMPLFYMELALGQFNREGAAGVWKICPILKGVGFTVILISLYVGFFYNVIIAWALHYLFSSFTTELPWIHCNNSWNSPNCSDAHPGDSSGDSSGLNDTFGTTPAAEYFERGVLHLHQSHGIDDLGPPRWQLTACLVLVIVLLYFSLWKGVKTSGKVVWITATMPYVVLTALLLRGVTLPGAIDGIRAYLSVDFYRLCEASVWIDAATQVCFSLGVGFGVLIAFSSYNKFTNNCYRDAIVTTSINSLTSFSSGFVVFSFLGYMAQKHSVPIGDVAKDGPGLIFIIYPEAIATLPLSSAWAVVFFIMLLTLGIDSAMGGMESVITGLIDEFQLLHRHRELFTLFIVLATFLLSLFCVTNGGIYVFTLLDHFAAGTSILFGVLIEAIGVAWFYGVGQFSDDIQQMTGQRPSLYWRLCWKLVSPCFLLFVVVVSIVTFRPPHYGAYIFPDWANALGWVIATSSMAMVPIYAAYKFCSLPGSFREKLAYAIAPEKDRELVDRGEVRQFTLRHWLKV
Assay: not given
Conditions: not given
Work on N#Cc1ccccc1CN(c1ccc2[nH]ccc2c1)C1CCNCC1 yielded a Ki of 501 nM.
Compound COc1cccc(CN(c2ccc3[nH]ccc3c2)C2CCNCC2)c1 has a Ki of 79.4 nM.
Compound CNCCN(c1ccccc1)c1ccc2[nH]ccc2c1 has a Ki of 501 nM.
For c1ccc(CN(c2ccc3[nH]ccc3c2)C2CCNC2)cc1 (stereo unspecified), the Ki was 31.6 nM.
In the case of Fc1ccc(CN(c2ccc3[nH]ccc3c2)C2CCNCC2)cc1, the Ki is reported as 251 nM.
For NS(=O)(=O)c1cccc(CN(c2ccc3[nH]ccc3c2)C2CCNCC2)c1, the Ki was 25.1 nM.
With Cn1ccc2cc(N(Cc3ccccc3)C3CCNCC3)ccc21 the Ki was 79.4 nM.
Work on CNCCC(c1ccccc1)c1ccc2[nH]ccc2c1 (stereo unspecified) yielded a Ki of 200 nM.
Compound c1ccc(CN(c2ccc3sccc3c2)C2CCNCC2)cc1 has a Ki of 200 nM.
Fc1ccccc1CN(c1ccc2[nH]ccc2c1)C1CCNCC1 gave a Ki of 126 nM.
For c1ccc(N(c2ccc3[nH]ccc3c2)C2CCNCC2)cc1, the Ki was > 1580 nM.
With c1ccc(CN(c2ccc3[nH]ccc3c2)C2CCCNC2)cc1 (stereo unspecified) the Ki was 39.8 nM.
c1ccc(CN(c2ccc3[nH]ncc3c2)C2CCNCC2)cc1 showed a Ki of 50.1 nM.
Work on CC(c1ccccc1)N(c1ccc2[nH]ccc2c1)C1CCNCC1 (stereo unspecified) yielded a Ki of 1580 nM.
With Fc1cccc(CN(c2ccc3[nH]ccc3c2)C2CCNCC2)c1 the Ki was 79.4 nM.
N#Cc1ccc(CN(c2ccc3[nH]ccc3c2)C2CCNCC2)cc1 showed a Ki of 794 nM.
c1ccc(CCN(c2ccc3[nH]ccc3c2)C2CCNCC2)cc1 gave a Ki of 158 nM.
N#Cc1cccc(CN(c2ccc3[nH]ccc3c2)C2CCNCC2)c1 showed a Ki of 31.6 nM.
c1cc2cc(N(CC3CCOCC3)C3CCNCC3)ccc2[nH]1 gave a Ki of 501 nM.

Test system: Caco-2
Assay: not given
Conditions: human, caco-2, 10 µM
Compound Cn1ccc2cc(N(Cc3ccccc3)C3CCNCC3)ccc21 has a Papp of 4 ×10⁻⁶ cm/s.
In the case of c1ccc(CN(c2ccc3sccc3c2)C2CCNCC2)cc1, the Papp is reported as 0.1 ×10⁻⁶ cm/s.

Test system: Caco-2
Assay: not given
Conditions: human, caco-2, 10 µM
Remark: another data set of the same source
In the case of Cn1ccc2cc(N(Cc3ccccc3)C3CCNCC3)ccc21, the Papp is reported as 7 ×10⁻⁶ cm/s.
Work on c1ccc(CN(c2ccc3sccc3c2)C2CCNCC2)cc1 yielded a Papp of 1.4 ×10⁻⁶ cm/s.

Molecular target: CYP2D6 (Homo sapiens, UniProt P10635)
Sequence (P10635 whole entry): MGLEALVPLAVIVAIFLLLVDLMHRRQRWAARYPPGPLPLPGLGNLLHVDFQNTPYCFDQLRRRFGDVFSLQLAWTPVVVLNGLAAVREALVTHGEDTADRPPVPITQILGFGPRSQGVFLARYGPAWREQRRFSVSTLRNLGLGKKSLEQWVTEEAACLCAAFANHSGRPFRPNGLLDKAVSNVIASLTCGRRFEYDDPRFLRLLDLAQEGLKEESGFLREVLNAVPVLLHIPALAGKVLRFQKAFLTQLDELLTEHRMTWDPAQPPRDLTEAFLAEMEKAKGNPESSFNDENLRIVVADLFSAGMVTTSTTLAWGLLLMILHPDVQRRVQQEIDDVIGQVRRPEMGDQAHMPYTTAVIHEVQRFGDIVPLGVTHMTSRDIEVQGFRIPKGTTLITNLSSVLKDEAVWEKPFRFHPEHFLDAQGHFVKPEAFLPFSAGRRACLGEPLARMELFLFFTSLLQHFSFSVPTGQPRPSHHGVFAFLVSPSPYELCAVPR
Assay: in vitro
Conditions: not given
For CNCCN(c1ccccc1)c1ccc2[nH]ccc2c1, the IC20 was 40000 nM.
In the case of c1ccc(CN(c2ccc3[nH]ccc3c2)C2CCNC2)cc1 (stereo unspecified), the IC20 is reported as 2000 nM.
Compound NS(=O)(=O)c1cccc(CN(c2ccc3[nH]ccc3c2)C2CCNCC2)c1 has an IC20 of 3000 nM.
For Cn1ccc2cc(N(Cc3ccccc3)C3CCNCC3)ccc21, the IC20 was > 50000 nM.
CNCCC(c1ccccc1)c1ccc2[nH]ccc2c1 (stereo unspecified) showed an IC20 of 5000 nM.
Work on c1ccc(CN(c2ccc3sccc3c2)C2CCNCC2)cc1 yielded an IC20 of 35000 nM.
In the case of c1ccc(N(c2ccc3[nH]ccc3c2)C2CCNCC2)cc1, the IC20 is reported as 14000 nM.
c1ccc(CN(c2ccc3[nH]ccc3c2)C2CCNCC2)cc1 gave an IC20 of 3000 nM.
c1ccc(CN(c2ccc3[nH]ccc3c2)C2CCCNC2)cc1 (stereo unspecified) gave an IC20 of 5000 nM.
Compound c1ccc(CN(c2ccc3[nH]ncc3c2)C2CCNCC2)cc1 has an IC20 of 400 nM.
In the case of N#Cc1cccc(CN(c2ccc3[nH]ccc3c2)C2CCNCC2)c1, the IC20 is reported as 500 nM.
Compound c1cc2cc(N(CC3CCOCC3)C3CCNCC3)ccc2[nH]1 has an IC20 of 27000 nM.

Molecular target: Sodium-dependent serotonin transporter (Homo sapiens, UniProt P31645)
Sequence (P31645 whole entry): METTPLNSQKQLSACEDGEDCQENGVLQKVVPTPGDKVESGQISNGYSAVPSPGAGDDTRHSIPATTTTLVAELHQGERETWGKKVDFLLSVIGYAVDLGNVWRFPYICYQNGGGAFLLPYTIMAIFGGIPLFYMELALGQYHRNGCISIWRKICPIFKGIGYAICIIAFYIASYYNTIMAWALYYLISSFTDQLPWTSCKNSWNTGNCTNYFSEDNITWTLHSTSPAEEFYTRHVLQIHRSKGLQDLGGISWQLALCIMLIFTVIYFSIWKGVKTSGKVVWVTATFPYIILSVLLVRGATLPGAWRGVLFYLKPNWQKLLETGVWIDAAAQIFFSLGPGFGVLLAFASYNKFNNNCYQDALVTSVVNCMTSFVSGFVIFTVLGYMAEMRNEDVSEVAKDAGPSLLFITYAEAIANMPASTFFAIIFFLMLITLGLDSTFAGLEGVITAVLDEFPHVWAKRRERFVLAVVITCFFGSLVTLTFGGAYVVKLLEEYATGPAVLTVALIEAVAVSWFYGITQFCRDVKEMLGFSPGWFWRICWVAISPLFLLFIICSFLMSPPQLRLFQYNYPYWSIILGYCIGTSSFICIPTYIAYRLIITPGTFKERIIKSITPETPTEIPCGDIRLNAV
Assay: not given
Conditions: not given
N#Cc1ccccc1CN(c1ccc2[nH]ccc2c1)C1CCNCC1 gave a Ki of 3.98 nM.
In the case of COc1cccc(CN(c2ccc3[nH]ccc3c2)C2CCNCC2)c1, the Ki is reported as 1.58 nM.
In the case of CNCCN(c1ccccc1)c1ccc2[nH]ccc2c1, the Ki is reported as 398 nM.
c1ccc(CN(c2ccc3[nH]ccc3c2)C2CCNC2)cc1 (stereo unspecified) showed a Ki of 20 nM.
With Fc1ccc(CN(c2ccc3[nH]ccc3c2)C2CCNCC2)cc1 the Ki was 2 nM.
Work on NS(=O)(=O)c1cccc(CN(c2ccc3[nH]ccc3c2)C2CCNCC2)c1 yielded a Ki of 6.31 nM.
In the case of Cn1ccc2cc(N(Cc3ccccc3)C3CCNCC3)ccc21, the Ki is reported as 3.98 nM.
CNCCC(c1ccccc1)c1ccc2[nH]ccc2c1 (stereo unspecified) showed a Ki of 31.6 nM.
With c1ccc(CN(c2ccc3sccc3c2)C2CCNCC2)cc1 the Ki was 12.6 nM.
Fc1ccccc1CN(c1ccc2[nH]ccc2c1)C1CCNCC1 gave a Ki of 3.98 nM.
For c1ccc(N(c2ccc3[nH]ccc3c2)C2CCNCC2)cc1, the Ki was 1000 nM.
In the case of c1ccc(CN(c2ccc3[nH]ccc3c2)C2CCCNC2)cc1 (stereo unspecified), the Ki is reported as 6.31 nM.
c1ccc(CN(c2ccc3[nH]ncc3c2)C2CCNCC2)cc1 gave a Ki of 1.26 nM.
CC(c1ccccc1)N(c1ccc2[nH]ccc2c1)C1CCNCC1 (stereo unspecified) gave a Ki of 39.8 nM.
Compound Fc1cccc(CN(c2ccc3[nH]ccc3c2)C2CCNCC2)c1 has a Ki of 1.26 nM.
N#Cc1ccc(CN(c2ccc3[nH]ccc3c2)C2CCNCC2)cc1 gave a Ki of 2.51 nM.
Work on c1ccc(CCN(c2ccc3[nH]ccc3c2)C2CCNCC2)cc1 yielded a Ki of 6.31 nM.
With N#Cc1cccc(CN(c2ccc3[nH]ccc3c2)C2CCNCC2)c1 the Ki was 0.251 nM.
For c1cc2cc(N(CC3CCOCC3)C3CCNCC3)ccc2[nH]1, the Ki was 39.8 nM.

Molecular target: Sodium-dependent noradrenaline transporter (Homo sapiens, UniProt P23975)
Sequence (P23975 whole entry): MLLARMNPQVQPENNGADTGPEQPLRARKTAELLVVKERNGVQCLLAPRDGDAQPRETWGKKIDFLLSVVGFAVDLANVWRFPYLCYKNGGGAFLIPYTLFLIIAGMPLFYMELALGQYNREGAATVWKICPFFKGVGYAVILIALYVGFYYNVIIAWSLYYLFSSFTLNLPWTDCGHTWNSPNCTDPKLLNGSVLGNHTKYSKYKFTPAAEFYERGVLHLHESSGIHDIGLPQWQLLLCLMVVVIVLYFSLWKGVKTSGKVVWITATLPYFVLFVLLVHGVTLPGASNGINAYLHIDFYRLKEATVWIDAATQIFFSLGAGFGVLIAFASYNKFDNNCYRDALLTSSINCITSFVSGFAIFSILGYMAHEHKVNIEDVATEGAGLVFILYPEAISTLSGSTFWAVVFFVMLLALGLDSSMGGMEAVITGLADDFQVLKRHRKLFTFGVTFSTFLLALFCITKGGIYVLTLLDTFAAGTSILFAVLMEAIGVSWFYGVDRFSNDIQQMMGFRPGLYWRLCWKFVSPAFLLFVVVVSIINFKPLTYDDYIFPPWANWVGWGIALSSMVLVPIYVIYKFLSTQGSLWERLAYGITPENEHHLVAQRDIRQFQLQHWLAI
Assay: not given
Conditions: not given
N#Cc1ccccc1CN(c1ccc2[nH]ccc2c1)C1CCNCC1 gave a Ki of 6.31 nM.
With COc1cccc(CN(c2ccc3[nH]ccc3c2)C2CCNCC2)c1 the Ki was 3.98 nM.
In the case of CNCCN(c1ccccc1)c1ccc2[nH]ccc2c1, the Ki is reported as 200 nM.
c1ccc(CN(c2ccc3[nH]ccc3c2)C2CCNC2)cc1 (stereo unspecified) showed a Ki of 10 nM.
Compound Fc1ccc(CN(c2ccc3[nH]ccc3c2)C2CCNCC2)cc1 has a Ki of 251 nM.
With NS(=O)(=O)c1cccc(CN(c2ccc3[nH]ccc3c2)C2CCNCC2)c1 the Ki was 79.4 nM.
With Cn1ccc2cc(N(Cc3ccccc3)C3CCNCC3)ccc21 the Ki was 25.1 nM.
For c1ccc(CN(c2ccc3sccc3c2)C2CCNCC2)cc1, the Ki was 200 nM.
In the case of Fc1ccccc1CN(c1ccc2[nH]ccc2c1)C1CCNCC1, the Ki is reported as 12.6 nM.
With c1ccc(N(c2ccc3[nH]ccc3c2)C2CCNCC2)cc1 the Ki was 1260 nM.
Work on c1ccc(CN(c2ccc3[nH]ccc3c2)C2CCCNC2)cc1 (stereo unspecified) yielded a Ki of 63.1 nM.
c1ccc(CN(c2ccc3[nH]ncc3c2)C2CCNCC2)cc1 gave a Ki of 15.8 nM.
CC(c1ccccc1)N(c1ccc2[nH]ccc2c1)C1CCNCC1 (stereo unspecified) showed a Ki of 1580 nM.
Fc1cccc(CN(c2ccc3[nH]ccc3c2)C2CCNCC2)c1 gave a Ki of 12.6 nM.
In the case of N#Cc1ccc(CN(c2ccc3[nH]ccc3c2)C2CCNCC2)cc1, the Ki is reported as 1000 nM.
Compound c1ccc(CCN(c2ccc3[nH]ccc3c2)C2CCNCC2)cc1 has a Ki of 50.1 nM.
N#Cc1cccc(CN(c2ccc3[nH]ccc3c2)C2CCNCC2)c1 gave a Ki of 10 nM.
Work on c1cc2cc(N(CC3CCOCC3)C3CCNCC3)ccc2[nH]1 yielded a Ki of 39.8 nM.

Molecular target: hERG (KCNH2) (Homo sapiens, UniProt Q12809)
Sequence (Q12809 whole entry): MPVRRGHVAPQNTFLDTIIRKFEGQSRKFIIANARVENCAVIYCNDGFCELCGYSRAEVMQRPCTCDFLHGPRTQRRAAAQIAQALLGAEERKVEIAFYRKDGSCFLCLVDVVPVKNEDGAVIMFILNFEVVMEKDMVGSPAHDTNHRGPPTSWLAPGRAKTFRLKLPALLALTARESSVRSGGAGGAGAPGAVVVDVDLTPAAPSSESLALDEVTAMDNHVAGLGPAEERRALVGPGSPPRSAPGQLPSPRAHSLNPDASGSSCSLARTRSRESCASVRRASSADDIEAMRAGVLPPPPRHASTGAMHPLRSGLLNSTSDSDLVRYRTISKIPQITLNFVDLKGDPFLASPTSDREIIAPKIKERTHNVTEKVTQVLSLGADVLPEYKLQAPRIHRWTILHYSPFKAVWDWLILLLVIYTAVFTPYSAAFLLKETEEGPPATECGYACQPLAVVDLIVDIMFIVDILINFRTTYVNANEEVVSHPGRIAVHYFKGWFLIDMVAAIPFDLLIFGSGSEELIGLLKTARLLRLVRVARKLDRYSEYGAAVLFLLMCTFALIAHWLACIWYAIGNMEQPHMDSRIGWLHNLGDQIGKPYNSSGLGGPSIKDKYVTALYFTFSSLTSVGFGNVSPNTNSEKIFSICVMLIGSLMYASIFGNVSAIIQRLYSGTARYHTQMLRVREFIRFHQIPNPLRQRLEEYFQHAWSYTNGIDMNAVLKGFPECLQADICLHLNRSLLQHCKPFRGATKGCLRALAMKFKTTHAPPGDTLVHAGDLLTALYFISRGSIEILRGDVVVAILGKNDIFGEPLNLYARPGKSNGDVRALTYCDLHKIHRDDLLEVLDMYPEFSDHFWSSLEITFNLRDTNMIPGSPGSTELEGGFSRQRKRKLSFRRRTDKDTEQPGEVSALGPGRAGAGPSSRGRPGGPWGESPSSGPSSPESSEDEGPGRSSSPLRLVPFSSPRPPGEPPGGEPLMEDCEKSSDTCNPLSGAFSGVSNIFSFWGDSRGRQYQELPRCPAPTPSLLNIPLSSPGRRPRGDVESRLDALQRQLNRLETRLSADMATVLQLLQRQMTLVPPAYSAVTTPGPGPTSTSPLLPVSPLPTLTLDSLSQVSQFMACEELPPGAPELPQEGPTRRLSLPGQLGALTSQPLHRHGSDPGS
Assay: in vitro
Conditions: CHO cells expressing human ERG
Description: Inhibition of human ERG expressed in CHO cells
COc1cccc(CN(c2ccc3[nH]ccc3c2)C2CCNCC2)c1 showed an IC20 of 1000 nM.
In the case of c1ccc(CN(c2ccc3[nH]ccc3c2)C2CCNC2)cc1 (stereo unspecified), the IC20 is reported as < 1000 nM.
For NS(=O)(=O)c1cccc(CN(c2ccc3[nH]ccc3c2)C2CCNCC2)c1, the IC20 was > 10000 nM.
Cn1ccc2cc(N(Cc3ccccc3)C3CCNCC3)ccc21 showed an IC20 of 5100 nM.
With CNCCC(c1ccccc1)c1ccc2[nH]ccc2c1 (stereo unspecified) the IC20 was < 1000 nM.
Compound c1ccc(CN(c2ccc3sccc3c2)C2CCNCC2)cc1 has an IC20 of 1000 nM.
c1ccc(CN(c2ccc3[nH]ccc3c2)C2CCNCC2)cc1 gave an IC20 of 1000 nM.
For c1ccc(CN(c2ccc3[nH]ccc3c2)C2CCCNC2)cc1 (stereo unspecified), the IC20 was < 1000 nM.
For c1ccc(CN(c2ccc3[nH]ncc3c2)C2CCNCC2)cc1, the IC20 was < 1000 nM.
In the case of N#Cc1cccc(CN(c2ccc3[nH]ccc3c2)C2CCNCC2)c1, the IC20 is reported as < 1000 nM.

Test system: not listed separately
Assay: in vitro
Conditions: human, Caco-2
Remark: another data set of the same source
Description: Apparent permeability from apical to basolateral side of human Caco-2 cells at 10 uM after 21 days
Compound NS(=O)(=O)c1cccc(CN(c2ccc3[nH]ccc3c2)C2CCNCC2)c1 has a Papp A→B at 10 µM of 0.7 ×10⁻⁶ cm/s.
Work on c1ccc(CN(c2ccc3[nH]ccc3c2)C2CCNCC2)cc1 yielded a Papp A→B at 10 µM of 6 ×10⁻⁶ cm/s.
With N#Cc1cccc(CN(c2ccc3[nH]ccc3c2)C2CCNCC2)c1 the Papp A→B at 10 µM was 4 ×10⁻⁶ cm/s.
